Structures can show the parent of a compound that is named as a salt.
Legend:
[1] = Dynamic vapor sorption (DVS) hygroscopicity analysis; format: physicochemical
Method: The obtained solid form of the salt was analyzed by dynamic vapor sorption (DVS), using a dynamic vapor sorption analyzer with a model IGA Sorp (Hidentity Isochema). The samples are measured in gradient mode and tested over a humidity range of 0% to 90% with 10% humidity increments for each gradient.
The compound has strong hygroscopicity and is not conducive to preservation. The obtained salt solid form was analyzed by using dynamic vapor sorption (DVS). The hygroscopicity comparison between the hydrochloride salt crystalline form A and the mesylate salt crystalline form C is compared.

[2] = tested on: 17α-Ethinylestradiol (E2-17a) induced cholestasis in rats; assay: 17α-ethinylestradiol (E2-17α) induced cholestasis in rats; format: in vivo
Method: Experimental method: E2-17α was administered by subcutaneous injection in the neck. The test compounds were administered by gavage for 7 days after modeling. After the last day of administration, the rats were fasted but had access to water. The experiment was performed on the next day, and treatment was performed after 24 h. The rats were anesthetized by intraperitoneal injection of 20% urethane (7 ml/kg). After anesthesia, the rats were fixed on a rat board to make a median abdominal incision from the xiphoid process of the upper abdomen downward, with a 3-4 cm incision. The common bile duct was isolated. A PE-10 polyethylene catheter (inner diameter: 0.28 mm, outer diameter: 0.61 mm) was used for intubation operation of the bile ducts. During the operation, the body […] was maintained between 37° C. and 38° C. with warm lamps and air conditioners to prevent changes in bile flow rate at low temperature. After the intubation was completed, the skin was sutured to prevent the water evaporation from the abdominal cavity. The other end of the bile duct cannula was drawn out and flowed into a fixed 0.2 mL collection tube, to consecutively perform collection every 15 min for 8 times.
Before the experiment, the weight of the bile collection tube was accurately weighed and recorded as B1. After the bile collection was completed in the experiment, the total weight of the bile and the collection tube was weighed and recorded as A2. The weight of bile in the tube was calculated by subtracting B1 from A2, and converted into volume according to 1 g/mL. The amount of bile secretion of rats in each group was expressed as mean±standard deviation (Mean±S.D). Bile Flow Rate (μL/Kg/Min)=(A2−B1)×1000000/Body Weight
The blood samples were allowed to stand for 2 h at room temperature, and centrifuged at 4000 rpm for 15 min. The serum was routinely separated to detect ALT, AST, and ALP. The left serum was aliquoted and frozen at −20° C. for subsequent detection.

[3] = tested on: AMLN diet-induced NASH in ob/ob mice; assay: AMLN diet-induced NASH in ob/ob mice; format: in vivo
Method: Test method: (1) C57 mice and ob/ob mice were adaptively reared for 1 week. (1) The C57 mice were given LFD diet (normal mouse group), and the ob/ob mice were divided into two groups: (2) 15 mice were given LFD diet (blank control group), and the rest were given AMLN diet (containing 40 kcal % fat, 20 kcal % fructose and 2% cholesterol) for 14 weeks. (2) Sampling for pathology detection: C57+LFD diet group (n=3), ob/ob+ AMLN diet group (n=3), liver lesions were evaluated according to NAFLD activity score to estimate the degree of model construction; the mice in the ob/ob+ AMLN diet group were tested for fasting blood glucose (FBG); and blood was collected from the eye socket. The serum was separated, and ALT and insulin (INS) in the serum were detected. (3) Insulin resistance (HOMA-IR) was calculated according to HOMA-IR═INS(μ/mL)×FBG(mM)/22.5.

[4] = Stability of crystalline form during thermal treatment and grinding (XRPD); format: physicochemical
Method: The crystalline form A was heated to 100° C. through programmed temperature or kept at 80° C. for 24 h in DSC.
A certain amount of hydrochloride salt crystalline form A was added to a mortar and ground at room temperature for 5 minutes.

[5] = AMLN diet-induced Lep^ob/Lep^ob mice NASH model

CC[C@@H]1C2C[C@H](O)CC[C@]2(C)C2CC[C@@]3(C)C(CC[C@@H]3[C@H](C)CCO[P@@]3(=O)OCC[C@@H](c4ccncc4)O3)C2[C@@H]1O.CS(=O)(=O)O (stereo partly drawn) [mesylate salt crystalline form C]
solid state (XRPD) after DVS ([1]; after moisture absorption): changes to an amorphous form

CC[C@@H]1C2C[C@H](O)CC[C@]2(C)C2CC[C@@]3(C)C(CC[C@@H]3[C@H](C)CCO[P@@]3(=O)OCC[C@@H](c4ccncc4)O3)C2[C@@H]1O (stereo partly drawn) [hydrochloride salt of Compound 1]
strength for promoting bile excretion, compared with the E2-17α group ([2]; gavage for 7 days): significantly increased
effect of promoting bile excretion, compared with Compound 1 ([2]; gavage for 7 days, hydrochloride salt prepared in Example 3): superior effect of promoting bile excretion over Compound 1
biliary excretion amount after 120 minutes ([2]; versus model group (E2-17α group)): still higher than that in the model group
hepatocyte ballooning [3, 5]: reduce
intralobular inflammation [3, 5]: reduce
total score of NASH model ([3]; AMLN diet-induced Lep^ob/Lep^ob mouse NASH model): significantly reduce
level of ALT in the serum ([3]; NASH mice): significantly reduce
level of AST in the serum ([3]; NASH mice): significantly reduce
liver fibrosis ([3]; NASH mice): significantly reduce

CC[C@@H]1C2C[C@H](O)CC[C@]2(C)C2CC[C@@]3(C)C(CC[C@@H]3[C@H](C)CCO[P@@]3(=O)OCC[C@@H](c4ccncc4)O3)C2[C@@H]1O (stereo partly drawn) [hydrochloride salt crystalline form A]
Hygroscopicity at low humidity ([1]; relative humidity lower than 75%): small
Hygroscopicity (DVS results) ([1]; relative humidity of 80%): hygroscopicity was 3.569%
overall hygroscopicity, compared between salt forms ([1]; versus mesylate salt crystalline form C): lower than that of mesylate salt crystalline form C
XRPD after grinding ([4]; ground in a mortar at room temperature for 5 minutes): main diffraction peaks of the obtained samples have not changed
XRPD after thermal treatment ([4]; heated to 100° C. through programmed temperature or kept at 80° C. for 24 h in DSC): main diffraction peaks of the obtained samples have not change

— patent US12331071B2, “Bile acid derivative salt, crystal structure thereof, preparation method therefor and use thereof” (XI'AN BIOCARE PHARMA LTD., priority 2020, dated 2025)
